# From patent US20100279324A1, “Assay For Detecting Mycobacterial Infection” (The University of Birmingham, priority 2007, published 2010)
# System: T cells present in the PBL's
# Type: cell-based, human
# Settings: anti-CD1b antibody, TB patients
substance,measurement,value
mycolic acid,CD1b restriction of antigen-specific response,CD1b restricted
